Values after ≈ are worked out from the molar mass of the structure shown. Like-named read-outs stand apart in the source and are kept apart here.
Assays:
[1] = Solubility of norketotifen (saturated solutions, HPLC); format: physicochemical; settings: for solubility: thermodynamic from solid
Method: Saturated solutions of norketotifen were prepared at room temperature by stirring, overnight sonication and filtering of the saturated supernatant solutions. An HPLC method for the determination of concentrations of norketotifen was developed:
The HPLC system was a HP 1050 with a variable wavelength detector. […] The relative standard deviation was approximately 0.3 percent for the main peak area.

[2] = system: human granulocytes (buffy coat); test: Inhibition of histamine release from granulocytes (A23187-induced granulocyte activation); format: cell-based; settings: for IC50: 20 min, A23187 (5 μM), 20 min/37° C.
Method: In the present studies, effects on granulocyte activation was studied as inhibition of histamine release from human granulocytes (buffy coat) by norketotifen. The method is a modification of the method described by Nolte, H. et al., 1988. Granulocytes were obtained from human volunteers and mediator release was induced by incubation (20 min/37° C.) with the calcium ionophore A23187 (5 μM) in the presence or absence of a test article. Histamine was selected as an indicator for mediator release because of the ease with which histamine can be analyzed, using commercially available kits. The test articles were evaluated, in duplicate, at five concentrations and IC50-values were calculated.
The calcium ionophore A23187 was used to increase intracellular calcium concentration of the granulocytes.

[3] = system: rabbit eyes; test: Ocular irritation test; format: in vivo, New Zealand White rabbits; settings: excipient-free solution 0.0345% in water or saline; rabbit eye, seven instillations of 0.1 ml
Method: New Zealand White rabbits, weighing 2 to 4 kilograms were used. Test formulation, in volumes of 0.1 ml were instilled into the conjunctival sac of six rabbit eyes of groups. Said volume of each formulation was repeatedly instilled every 30 minutes for 3 hours (a total of seven instillation into the eyes of rabbits. Ocular irritation was scored according to both Draize et al., 1944 and Kay and Calandra, 1962. Scorings were performed before each instillation and 30 minutes, 3 hours and 24 hours after the last instillation.
The formulations of norketotifen in Table 7 were prepared and tested and the results were compared with irritation by norketotifen in excipient-free solutions. […] In the present study, norketotifen HF was dissolved to an intended concentration of 0.276 percent in the various solutions, using stirring and over-night sonication at room temperature. After sonication, all solutions were filtered through a 0.45 μm non-pyrogenic MILLEX® HV filter unit before being used for ocular tests. Thus, all of the solutions used for the ocular irritation tests in Table 7 contained the highest possible concentrations of norketotifen HF.
Solutions of norketotifen were similarly prepared in excipient-free solutions containing only norketotifen HF 0.0345 percent by weight, dissolved in water or in saline, and filtered as described above. […]

[4] = target: T1, H-1 (Rattus norvegicus, UniProt P31390); test: Antihistaminic (H-1) activity in vivo after oral administration (histamine wheal); parameters: species or system rats; settings: for Histamine (wheal area): 60 min before intradermal histamine; for Saline (wheal area): intradermal histamine vehicle
T1 construct: two intradermal injections of histamine; from tissue; host or cells: dorsal skin of live male rats (in vivo)
T1 sequence (P31390 whole entry): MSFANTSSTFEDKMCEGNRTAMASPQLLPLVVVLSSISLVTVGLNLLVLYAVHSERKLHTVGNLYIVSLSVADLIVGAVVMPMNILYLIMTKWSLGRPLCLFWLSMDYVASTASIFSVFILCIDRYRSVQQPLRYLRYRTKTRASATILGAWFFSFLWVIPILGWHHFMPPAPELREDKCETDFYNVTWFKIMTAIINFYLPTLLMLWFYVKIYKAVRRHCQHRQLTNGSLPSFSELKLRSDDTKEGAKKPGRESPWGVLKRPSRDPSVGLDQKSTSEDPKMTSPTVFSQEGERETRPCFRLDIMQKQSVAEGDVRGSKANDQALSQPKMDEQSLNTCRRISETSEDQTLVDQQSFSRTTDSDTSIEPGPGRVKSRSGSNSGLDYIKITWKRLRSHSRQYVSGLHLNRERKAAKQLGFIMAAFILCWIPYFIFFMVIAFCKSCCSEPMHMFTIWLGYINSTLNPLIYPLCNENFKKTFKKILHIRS
Method: Male rats (150-200 g) were starved overnight and twelve hours after dorsal depilation, the animals were dosed orally with the test compound(s). Four dorsal test areas were marked with permanent ink. Exactly 60 min after the dosing of the test compound, two intradermal injections of histamine (50 microliter; 1.0 mg/ml of histamine di-HCl) were performed, one on each side on the back of the animal. Two intradermal injections of the vehicle for the histamine solution were also performed. Evans blue dye (20 mg/kg) was injected iv 1 minute prior to the intra-dermal injections of histamine and the histamine vehicle. Twenty minutes were allowed for the wheal response to fully develop, whereupon the animals were euthanized and the dorsal skin containing the intradermal wheals was deflected. The blue spotted areas were measured in square millimeters and the duplicate vehicle wheal responses were averaged. […] The inhibition was calculated in percent difference from the corresponding vehicle baseline value.

[5] = Stability of norketotifen formulations; format: physicochemical; settings: pH 6.5; accelerated testing (55° C.)
Method: Stability of norketotifen formulations was studied after incubation at various temperatures, acidity and time intervals. The concentrations of norketotifen were measured after incubation periods of various lengths.

[6] = water, read-out: water solubility

Question: What does the source list for CN1CCC(=C2c3ccccc3CC(=O)c3sccc32)CC1 [ketotifen]?
Answer: solubility [1, 6]: ~12500 µg/mL (≈ 40.4 mM); IC50 [2]: 91 µM

Question: With O=C1Cc2ccccc2C(=C2CCNCC2)c2ccsc21 [norketotifen FB] as the molecule, how does the “solubility of free base in non-aqueous solvents” value ([1]; propylene glycol, glycerin, ethanol and isopropyl alcohol) read?
Answer: can be dissolved

Question: What does the source list for O=C1Cc2ccccc2C(=C2CCNCC2)c2ccsc21 [norketotifen]?
Answer: ocular irritation (Draize; Kay and Calandra scoring) [3]: caused irritation; soluble in polyethylene glycol (PEG 300) ([1]; PEG 300): up to 0.15 percent w/w; solubility ([1]; pH 8.6, aqueous buffer, read-out: solubility of norketotifen in water): 2100 µg/mL (≈ 7.11 mM); solubility ([1]; pH 8.75, aqueous buffer, read-out: solubility of norketotifen in water): ~1000 µg/mL (≈ 3.39 mM); soluble in propylene glycol ([1]; propylene glycol): up to 1.0 percent by weight; solubility ([1]; propylene glycol, organic solvent or mixture, read-out: solubility of norketotifen in propylene glycol): ~10000 µg/mL (≈ 33.9 mM); can be dissolved in water ([1]; water): up to 0.216 percent by weight; solubility [1, 6]: ~2160 µg/mL (≈ 7.31 mM); inhibition at 1 mg/kg ([4]; rat, po): 6%; inhibition at 10 mg/kg ([4]; rat, po): 83%; inhibition at 50 mg/kg ([4]; rat, po): 100%; absorption after oral administration ([4]; rats, oral): well absorbed; antihistaminic potency relative to diphenhydramine ([4]; rats, oral): more potent than the reference compound; Histamine effect ([4]; rats, oral, 1 mg/kg): 92 mm^2; Histamine (wheal area) ([4]; rats, oral, 1 mg/kg): 114 ± 8 mm^2; Saline (wheal area) ([4]; rats, oral, 1 mg/kg): 22 ± 1 mm^2; Histamine effect ([4]; rats, oral, 10 mg/kg): 17 mm^2; Histamine (wheal area) ([4]; rats, oral, 10 mg/kg): 39 ± 2 mm^2; Saline (wheal area) ([4]; rats, oral, 10 mg/kg): 22 ± 1 mm^2; Histamine effect ([4]; rats, oral, 50 mg/kg): 0 mm^2; Histamine (wheal area) ([4]; rats, oral, 50 mg/kg): 10 ± 1 mm^2; Saline (wheal area) ([4]; rats, oral, 50 mg/kg): 12 ± 1 mm^2; antihistaminic activity relative to ketotifen ([4]; tested in vivo (Example 12)): about half of that of ketotifen; IC50 [2]: 9.2 µM; activity relative to ketotifen in inhibiting granulocyte activation (anti-inflammatory) ([2]; A23187-induced): about ten times more potent than ketotifen; stability in solution formulations [5]: not stable

Reference: patent publication US8765787B2, “Methods of treatment of xerophthalmia with self-preserving ocular formulations of norketotifen” (Bridge Pharma, Inc., priority 2008, dated 2014)
